Assay [1] relates to U138 glioblastoma cell line. The assay can be described thus: In-vitro cell survival assay (Alamar blue), U138. As to conditions: 24 h; U138, one day after compound addition. It counts as cell-based. The protocol: (§1) Five tumor-derived cell lines were treated with the ROS inhibitor compounds and cell survival was monitored to determine the cancer prohibition effects of the compounds. The cell lines included HeLa, a cervical cancer cell line, and four glioblastoma cell lines U138, U87, LN18, and U118. The basic protocol for the in-vitro cell survival assay is the same for all five cell lines. In particular, the cells were seeded in 96-well plates at 2-5×10^3 cells/well (cell line dependent) in culture medium. The cells were grown for 2 days before the compounds were dissolved in DMSO and added to final concentrations of 100 uM, 10 uM, or 1 uM (DMSO final concentration 0.5%). The cell culture was then assayed one day after the addition of the compounds. The assay used Alamar blue as a redox-sensitive dye that interrogates mitochondrial fitness of cells, and these assays provided a readout for cell proliferation and viability. The raw values were normalized to an average of several vehicle control wells and are presented as percent decrease in proliferation/viability, which is converted to half maximal effective concentration (EC50) values.

In assay [2] the test system is HeLa cervical cancer cell line. The assay can be described thus: In-vitro cell survival assay (Alamar blue), HeLa. It counts as cell-based. To be noted: Homo sapiens, 24 h, one day after compound addition. The protocol: as §1
The test system of assay [3] is U87 glioblastoma cell line. The assay can be described thus: In-vitro cell survival assay (Alamar blue), U87. It counts as cell-based. To be noted: 24 h; U87, one day after compound addition. Here is the method: as §1
Assay [4] deals with LN18 glioblastoma cell line. As to the kind of experiment: In-vitro cell survival assay (Alamar blue), LN18. It counts as cell-based. To be noted: Homo sapiens, LN-18, 24 h; LN18, one day after compound addition. Here is the method: as §1
In the next assay the target is ROS (Homo sapiens, UniProt P08922). The assay can be described thus: In vitro ROS enzymatic reaction assay (HTRF, Cisbio). It counts as biochemical. Also on record: ROS or EGFR enzyme, 0.008 ng/ul. To be noted: for inhibition at 5 µM / inhibition at 10 µM / Kinase Inhib. 5 uM (%) / Kinase Inhib. 10 uM (%): ROS kinase; for inhibition at 5 µM / Kinase Inhib. 5 uM (%): compound at 5 uM; for inhibition at 5 µM: read-out: Kinase Inhib. 5 uM (%); for inhibition at 10 µM / Kinase Inhib. 10 uM (%): compound at 10 uM; for inhibition at 10 µM: read-out: Kinase Inhib. 10 uM (%). Here is the method: The ROS enzymatic reactions were carried out with a high throughput screening platform for phosphor-detection of kinase activity. This platform based on homogeneous time resolved fluorescence (HTRF) technology from Cisbio Bioassays, Inc. (Cisbio). […] The reaction was allowed to proceed for 30 minutes at room temperature. An equal volume of detection buffer was then added to the reaction mix.
Sequence of ROS (P08922 28-2347): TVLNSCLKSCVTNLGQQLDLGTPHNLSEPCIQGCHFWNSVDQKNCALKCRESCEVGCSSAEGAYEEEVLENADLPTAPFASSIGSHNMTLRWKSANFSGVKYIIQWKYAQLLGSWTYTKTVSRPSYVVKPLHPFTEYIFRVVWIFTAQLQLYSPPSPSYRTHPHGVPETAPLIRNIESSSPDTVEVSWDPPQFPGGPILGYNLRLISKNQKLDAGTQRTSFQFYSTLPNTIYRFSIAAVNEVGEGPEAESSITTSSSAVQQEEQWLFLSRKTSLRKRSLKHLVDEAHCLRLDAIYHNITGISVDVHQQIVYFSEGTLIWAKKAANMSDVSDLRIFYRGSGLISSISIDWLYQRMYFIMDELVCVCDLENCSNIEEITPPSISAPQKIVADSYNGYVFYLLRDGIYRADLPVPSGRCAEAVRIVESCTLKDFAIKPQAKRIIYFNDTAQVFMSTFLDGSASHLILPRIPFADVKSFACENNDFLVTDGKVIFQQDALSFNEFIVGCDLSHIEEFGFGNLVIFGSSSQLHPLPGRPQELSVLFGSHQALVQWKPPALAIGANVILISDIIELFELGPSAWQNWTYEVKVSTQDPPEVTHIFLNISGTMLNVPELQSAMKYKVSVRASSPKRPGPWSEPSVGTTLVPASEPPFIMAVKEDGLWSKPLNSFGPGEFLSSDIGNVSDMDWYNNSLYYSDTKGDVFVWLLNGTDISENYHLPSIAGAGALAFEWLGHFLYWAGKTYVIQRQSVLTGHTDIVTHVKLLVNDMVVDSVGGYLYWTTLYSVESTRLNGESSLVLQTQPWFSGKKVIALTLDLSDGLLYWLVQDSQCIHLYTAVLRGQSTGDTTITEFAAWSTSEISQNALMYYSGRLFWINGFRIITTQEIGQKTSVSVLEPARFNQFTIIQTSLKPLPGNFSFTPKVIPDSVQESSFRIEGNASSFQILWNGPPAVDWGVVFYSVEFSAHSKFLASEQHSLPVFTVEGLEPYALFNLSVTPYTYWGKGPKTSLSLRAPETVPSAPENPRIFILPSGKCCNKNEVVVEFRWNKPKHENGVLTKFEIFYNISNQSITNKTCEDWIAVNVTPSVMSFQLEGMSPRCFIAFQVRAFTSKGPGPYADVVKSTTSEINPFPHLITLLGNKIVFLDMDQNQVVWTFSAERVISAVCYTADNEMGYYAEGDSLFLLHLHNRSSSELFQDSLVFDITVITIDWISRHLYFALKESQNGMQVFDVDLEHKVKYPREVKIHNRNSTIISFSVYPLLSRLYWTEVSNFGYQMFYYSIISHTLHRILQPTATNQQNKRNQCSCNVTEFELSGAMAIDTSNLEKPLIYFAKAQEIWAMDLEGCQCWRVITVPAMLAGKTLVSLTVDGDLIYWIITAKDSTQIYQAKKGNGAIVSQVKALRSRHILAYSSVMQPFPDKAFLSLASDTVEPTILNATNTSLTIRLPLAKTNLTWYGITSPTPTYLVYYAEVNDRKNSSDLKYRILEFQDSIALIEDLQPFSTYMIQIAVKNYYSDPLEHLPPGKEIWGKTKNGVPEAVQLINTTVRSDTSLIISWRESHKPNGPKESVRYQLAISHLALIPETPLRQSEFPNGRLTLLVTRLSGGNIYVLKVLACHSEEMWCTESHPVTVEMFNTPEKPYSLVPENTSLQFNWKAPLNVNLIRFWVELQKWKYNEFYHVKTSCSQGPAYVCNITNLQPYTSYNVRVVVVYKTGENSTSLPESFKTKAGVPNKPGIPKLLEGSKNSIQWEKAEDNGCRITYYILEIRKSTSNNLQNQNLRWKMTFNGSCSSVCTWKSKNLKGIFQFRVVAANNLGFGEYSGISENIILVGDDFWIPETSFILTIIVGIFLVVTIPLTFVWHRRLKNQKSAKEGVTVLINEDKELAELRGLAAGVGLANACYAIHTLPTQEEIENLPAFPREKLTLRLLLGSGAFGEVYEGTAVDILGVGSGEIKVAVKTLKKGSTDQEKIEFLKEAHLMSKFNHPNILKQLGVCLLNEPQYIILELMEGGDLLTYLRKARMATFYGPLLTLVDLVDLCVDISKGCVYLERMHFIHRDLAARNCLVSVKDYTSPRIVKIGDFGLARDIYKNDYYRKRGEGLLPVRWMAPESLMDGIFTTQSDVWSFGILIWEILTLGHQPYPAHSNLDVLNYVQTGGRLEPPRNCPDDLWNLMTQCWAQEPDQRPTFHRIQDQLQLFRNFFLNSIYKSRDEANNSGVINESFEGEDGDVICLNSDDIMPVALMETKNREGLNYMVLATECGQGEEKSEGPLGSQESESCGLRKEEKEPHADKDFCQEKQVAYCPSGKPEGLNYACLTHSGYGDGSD

Experimental findings from patent US9963452B2, “Methods, compounds, and compositions for inhibition of ROS” (AUGUSTA PHARMACEUTICALS INC., priority 2013, dated 2018) are described below.

A value given as a limit tells only on which side of the number the result lay.

Take `CC(C)c1nc(Nc2ccc(C(=O)N3CCOCC3)cc2)nc(Nc2ccc3ncsc3c2)n1` [drawing 460]: the 50% effective concentration (EC50) is over 100 µM in assay [1], 35 µM in assay [2], over 100 µM in assay [3] and 80 µM in assay [4].

For `CC(C)c1nc(Nc2ccc(C(=O)N3CCCCC3)cc2)nc(Nc2ccc3ncsc3c2)n1` [drawing 455], the EC50 in assay [1] was determined as 18 µM; in assay [2], 30 µM; in assay [3], 40 µM; in assay [4], 30 µM.

Take `O=C1NN=C(c2ccccc2)/C1=C/Nc1ccccc1` [drawing 368]: the EC50 in assay [2] and in assay [4] was over 100 µM in each case.

In the case of `O=C(NCC1CCNCC1)c1ccc(Nc2ncc(Cl)c(Nc3ccc4ncsc4c3)n2)cc1` [drawing 468], the concentration for a half-maximal effect (EC50) in assay [1], in assay [2], in assay [3] and in assay [4] was over 100 µM each time.

Turning to `Cc1ccc(NC=C2C(=O)NN=C2c2ccccc2)cc1` [drawing 370], the results for the EC50 in assay [2] and in assay [4] were over 100 µM and 52 µM, respectively.

With `O=C(COc1ccccc1)NCC(c1cccs1)S(=O)(=O)c1ccc(Cl)cc1` (centres unmarked) [drawing 290], at ROS, the IC50 was determined as 1.78 µM, the inhibition at 5 µM was found to be 83.8% and the inhibition at 10 µM was 102%.

As to `Cc1ccc(NC=C2C(=O)NN=C2c2ccccc2)cc1` [drawing 233], the inhibition at 5 µM on ROS worked out at 43.7%.

Consider `Cc1nc2cc(C(=O)N[C@H](c3ccccc3)c3cccnc3)ccc2[nH]1` [drawing 261], for which, on ROS, the inhibition at 5 µM was 23.6%.

On to `CC(C)c1nc(Nc2ccc(C(=O)N3CCN(C)CC3)cc2)nc(Nc2ccc3ncsc3c2)n1` [drawing 321], for which, at ROS, the IC50 turned out to be 3.89 µM and the inhibition at 5 µM came to 90.7%.

As to `CC(=O)N[C@@H]1CCN(C(=O)c2cccc(Nc3cc(N(C)c4cccc(C)c4)ncn3)c2)C1` [drawing 241], the inhibition at 5 µM on ROS came to 29.6%.

With `O=C(c1ccc(Nc2ncc(Br)c(Nc3ccc4ncsc4c3)n2)cc1)N1CCCCC1`, the midpoint of inhibition against ROS, the IC50, lay at 0.62 µM. This lies in the sub-micromolar range.

With `Cc1c(Br)c([N+](=O)[O-])nn1[C@H](C)C(=O)Nc1c(C)n(C)n(-c2ccccc2)c1=O`, on ROS, the IC50 is over 100 µM and the inhibition at 10 µM worked out at 34.1%.

Turning to `COc1ccc(C(F)(F)F)cc1NC(=O)CCn1ccc2ccccc21` [drawing 339], on ROS, the inhibition at 10 µM came to 26.4%.

For the molecule `CC(C)c1nc(Nc2ccc(N)cc2)nc(Nc2ccc3ncsc3c2)n1`, at ROS, the IC50 was determined as 0.746 µM.

Take `COc1ccc(Nc2nc(N(C)CCO)nc3c2cnn3-c2ccccc2)cc1` [drawing 250]: the “Kinase Inhib. 5 uM (%)” value on ROS is on record as 41.55%.

As for `CSc1sc(-c2n[nH]cc2Br)c2c1C(=O)CC(C)(C)C2` [drawing 259], at ROS, the half-maximal inhibitory concentration (IC50) is 10 µM and the inhibition at 10 µM is 34%.

Consider `O=C(c1ccccc1)n1nc(-c2ccco2)nc1NCc1ccc(Cl)cc1` [drawing 295], for which the inhibition at 5 µM at ROS was 26.6%.

For the molecule `Cc1cc(=O)n2nc(CC(=O)c3ccccc3)[nH]c2n1`, the inhibition at 5 µM at ROS came to 33.2%.

As to `CC(C)CN(CC(C)C)C(=O)c1cccc(Nc2nccc(Nc3ccc4ncsc4c3)n2)c1` [drawing 287], on ROS, half-maximal inhibition (IC50) was put at 1.3 µM and the inhibition at 5 µM turned out to be 99.6%.

Molecule `CC(C)c1nc(Nc2cccc(Br)c2)nc(Nc2cc(C3CC3)n[nH]2)n1` returned an IC50 at ROS of 0.038 µM. This lies in the double-digit nanomolar range.

For the molecule `NC(=O)c1c(NC(=O)[C@H]2CC(=O)N(c3ccccc3)C2)sc2c1CCCC2` [drawing 219], at ROS, the IC50 was found to be 1.3 µM and the inhibition at 10 µM came to 41.5%.

As to `CC(C)c1nc(Nc2ccc3ncsc3c2)nc(N2CCOCC2)n1` [drawing 315], at ROS, the half-inhibitory concentration (IC50) is over 5 µM and the inhibition at 5 µM came to 23.5%.

Turning to `Clc1ccc2nc(NCc3ccccn3)nc(-c3ccccc3)c2c1` [drawing 220], at ROS, the inhibition at 10 µM was found to be 25%.

Turning to `Cc1ccc(-n2cc(-c3cccs3)nc2SCc2n[nH]c(=S)n2Cc2ccccc2)cc1` [drawing 256], at ROS, the “Kinase Inhib. 10 uM (%)” value worked out at 28.13%.

With `CN1CCN(C(=O)c2cccc(Nc3nccc(Nc4ccc5ncsc5c4)n3)c2)CC1` [drawing 278], at ROS, the IC50 is 0.14 µM and the inhibition at 5 µM worked out at 99.4%.

For `Cc1cccc(Nc2nccc(Nc3cccc(C(=O)NC4CCN(C)CC4)c3)n2)c1` [drawing 285], on ROS, half-maximal inhibition (IC50) was put at 1.42 µM and the inhibition at 5 µM is 98.6%.

Consider `Cn1c(=O)c2c(nc3n(CCO)c(-c4ccccc4)cn23)n(C)c1=O` [drawing 265], for which the “Kinase Inhib. 5 uM (%)” value on ROS was found to be 26.87%.

Take `O=C(NCCc1ccccc1)c1cccc(Nc2nccc(Nc3ccc4ncsc4c3)n2)c1` [drawing 281]: the “Kinase Inhib. 5 uM (%)” value on ROS is reported as 94.23%.

As for `CCc1cc(Br)ccc1NC(=O)CCn1ccc2ccccc21` [drawing 341], the inhibition at 10 µM at ROS is 20.8%.

For the molecule `O=C(CCn1ccc2ccccc21)Nc1ccc(F)cc1` [drawing 338], the inhibition at 10 µM on ROS was 23.2%.

Take `NC(Cc1ccccc1)C(=O)n1ccc2cccnc21` (centres unmarked) [drawing 342]: the inhibition at 10 µM at ROS was 26.9%.

`Cc1ccc(F)cc1S(=O)(=O)Nc1cccc(C(=O)OCC(=O)NC2CCCCC2)c1` [drawing 267]: the inhibition at 5 µM on ROS stood at 20%.

As for `O=C1NN=C(c2ccccc2)/C1=C1\OC(c2ccccc2)=CS1` [drawing 255], on ROS, the half-inhibitory concentration (IC50) was determined as 0.16 µM, the inhibition at 5 µM amounted to 69.2% and the inhibition at 10 µM turned out to be 77.8%.

For `CC(C)(C)c1cc(C(=O)NNc2cccc(Cl)c2)n(Cc2ccccc2)n1` [drawing 252], the “Kinase Inhib. 10 uM (%)” value on ROS was 27.16%.

`Nc1nc(Nc2ccc(C(=O)N3CCCCCC3)cc2)cc(Nc2ccc3ncsc3c2)n1` [drawing 272]: at ROS, the “Kinase Inhib. 5 uM (%)” value came to 22.67%.

For the molecule `Nc1nc(Nc2ccc(C(=O)NCCc3ccncc3)cc2)cc(Nc2ccc3ncsc3c2)n1` [drawing 280], the inhibition at 5 µM at ROS was 61.1%.

Turning to `CCN(CCO)c1nc(Nc2ccc(F)cc2)c2cnn(-c3ccccc3)c2n1` [drawing 249], on ROS, the IC50 was determined as 16.9 µM and the “Kinase Inhib. 10 uM (%)” value is 38.92%.

For the molecule `Nc1cccc2cccc(N=C(CC(=O)O)C(=O)O)c12` [drawing 344], the inhibition at 10 µM on ROS was 24.6%.

In the case of `CCN(CC)CCNC(=O)c1cccc(Nc2nccc(Nc3ccc4ncsc4c3)n2)c1` [drawing 236], the inhibition at 5 µM on ROS stood at 102%.

Consider `CCOC(Nc1cc(-c2sccc2-n2c(C)ccc2C)[nH]n1)OCC` [drawing 227], for which, on ROS, the “Kinase Inhib. 10 uM (%)” value worked out at 27.57%.

`CC(C)c1nc(Nc2cccc(OC(F)(F)F)c2)nc(Nc2cc(C3CC3)n[nH]2)n1` yielded an IC50 against ROS of 0.04 µM.

For `O=C(CCn1ccc2ccccc21)Nc1cnccn1` [drawing 340], the inhibition at 10 µM on ROS is 14.3%.

Regarding `O=C(c1cccc(Nc2nccc(Nc3ccc4ncsc4c3)n2)c1)N1CCCCC1` [drawing 301], at ROS, the concentration for half-maximal inhibition (IC50) was found to be 0.392 µM and the inhibition at 5 µM turned out to be 100%.

Take `CC(C)(CO)NC(=O)c1cccc(Nc2nccc(Nc3ccc4ncsc4c3)n2)c1` [drawing 271]: at ROS, the concentration for half-maximal inhibition (IC50) is 0.361 µM and the inhibition at 5 µM worked out at 96.3%.

Consider `O=C(NCc1ccco1)c1cccc(Nc2nccc(Nc3ccc4ncsc4c3)n2)c1` [drawing 239], for which, at ROS, inhibition was half-maximal at 0.16 µM (IC50) and the inhibition at 5 µM came to 101%.

`COc1cccc(Nc2cc(Nc3cccc(C(=O)N4CCN(C(C)=O)CC4)c3)nc(N)n2)c1` [drawing 240]: the inhibition at 5 µM at ROS was found to be 22.3%.

As for `O=c1nc2[nH]c3ccc([N+](=O)[O-])cc3nc-2c(=O)[nH]1`, the “Kinase Inhib. 5 uM (%)” value on ROS is given as 26.23%.

`COc1ccccc1NC(=O)C1=C(C)Nc2ncnn2C1c1ccc[nH]1` (centres unmarked): the “Kinase Inhib. 5 uM (%)” value on ROS came out at 40.40%.

As to `FC(F)(F)c1cc(-n2c(Cc3cccc4ccccc34)n[nH]c2=S)cc(C(F)(F)F)c1` [drawing 260], at ROS, the “Kinase Inhib. 5 uM (%)” value is given as 28.49%.

For `O=C(NCC1CCCCC1)c1cccc(Nc2nccc(Nc3ccc4ncsc4c3)n2)c1` [drawing 270], the inhibition at 5 µM at ROS stood at 32.6%.

On to `CC(C)c1nc(Nc2ccc3ncsc3c2)nc(N2CCCC2)n1` [drawing 314], for which, on ROS, the IC50 was over 5 µM and the inhibition at 5 µM was 20.9%.

On to `COc1cccc(Nc2nc(N)c(C(=O)c3c(C)[nH]c4ccccc34)s2)c1` [drawing 247], for which the inhibition at 10 µM at ROS was determined as 28.5%.

As to `COc1ccc(N/C=C2\C(=O)NN=C2c2ccccc2)cc1` [drawing 369], the concentration for a half-maximal effect (EC50) was determined as 100 µM in assay [2] and 78 µM in assay [4].

In turn, `CC(C)c1nc(Nc2cccc(Br)c2)nc(Nc2ccc3ncsc3c2)n1` came in with an IC50 against ROS of 0.086 µM.

In turn, `CC(C)c1nc(Nc2ccc(Br)cc2)nc(Nc2cc(C3CC3)n[nH]2)n1` gave an IC50 at ROS of 0.067 µM.

On to `Cc1cccc(Nc2nccc(Nc3cccc(C(=O)NCc4ccc(F)cc4)c3)n2)c1` [drawing 242], for which the inhibition at 5 µM on ROS was 23.7%.

With `Cc1cccc(C(=O)n2nc(-c3ccco3)nc2NCc2ccccc2)c1` [drawing 294], the “Kinase Inhib. 5 uM (%)” value at ROS was found to be 25.09%.
